Experimental data reported in publication PMC5804415, “Comparison of ^68Ga-DOTA-Siglec-9 and ^18F-Fluorodeoxyribose-Siglec-9: Inflammation Imaging and Radiation Dosimetry” (Contrast Media & Molecular Imaging, 2017).
Positions of bridges follow the written chain, without caps; N, C: chain ends. Residues, ends and D or L forms follow the SMILES beside them. *: point of attachment. DOTA = O=C(O)CN1CCN(CC(=O)O)CCN(CC(=O)*)CCN(CC(=O)O)CC1; AEEA = NCCOCCOCC(=O)O

What was measured:
[1] = in vivo; details: Sprague-Dawley, rat, iv, total radioactivity, Ex vivo biodistribution, SD
Excerpt: Twenty-four hours before the PET studies, Sprague-Dawley rats (weight, 350 ± 22 g; n = 16) were subcutaneously injected with turpentine oil (Sigma-Aldrich) to induce focal acute, sterile inflammation [12]. Before the injection, rats were shaved on the both forelegs. Inflamed area on the left foreleg contained both skin and muscle. The intact, contralateral side (right foreleg) was used as a control.
After PET imaging, rats were sacrificed and various tissues were excised and weighed, and their radioactivity levels were measured with a gamma counter (1480 Wizard 3′′, PerkinElmer, Turku, Finland). The ex vivo biodistribution results were expressed as a percentage of the injected radioactivity dose per gram of tissue (% ID/g) and target-to-background ratio.

[2] = system: rats with skin/muscle inflammation (turpentine oil); assay type: in vivo, rat; details: rat, in vivo, iv
Procedure: Rats were divided into two groups with Group 1 being intravenously (i.v.) given ^68Ga-DOTA-Siglec-9 (16 ± 2.9 MBq, n = 8) and Group 2 ^18F-FDR-Siglec-9 (18 ± 5.1 MBq, n = 8). A 60 min dynamic PET acquisition was performed on a High Resolution Research Tomograph (HRRT; Siemens Medical Solutions, Knoxville, TN, USA). The PET data were reconstructed into 5 × 60 s and 11 × 300 s frames using an ordered-subsets expectation maximization 3D algorithm (OSEM3D). Quantitative PET image analysis was performed by defining regions of interest (ROIs) within the inflamed area (on the left foreleg), control area (on the right foreleg), kidneys, lungs, heart, liver, and urinary bladder using […] 2.8 software (Turku PET Centre). Results were expressed as standardized uptake values (SUV) and time-activity curves. SUV was calculated as a ratio of tissue radioactivity concentration (Bq/mL) and given radioactivity dose (Bq) divided by animal's body weight.

[3] = SD
Procedure: Absorbed doses of ^68Ga-DOTA-Siglec-9 and ^18F-FDR-Siglec-9 were calculated with the OLINDA/EXM version 1.0 software (organ level internal dose assessment and exponential modeling; Vanderbilt University, Nashville, TN, USA), which applies the MIRD schema (developed by the Medical Internal Radiation Dose committee of the Society of Nuclear Medicine) for radiation dose calculations in internal exposure. The software includes radionuclide information and selection of human body phantoms. The residence times derived from the rat data were integrated as the area under the time-activity curve. The residence times were converted into corresponding human values by multiplication with a factor to scale the organ and body weights: (WBody,rat/WOrgan,rat)×(WOrgan,human/WBody,human), where WBody,rat and WBody,human are the body weights of rat and human (a 70-kg male), respectively; and WOrgan,rat and WOrgan,human are the organ weights of rat and human (organ weights for a 70 kg male), respectively [14].

[4] = system: LDLR^−/−ApoB^100/100 atherosclerotic mice; design: method as in PMID 27731409; details: mouse, in vivo; cited from earlier work

- tissue uptake at 1 h ([1]; Adipose tissue, BAT): 0.024 ± 0.026 %ID/g
- tissue uptake at 1 h ([1]; Adipose tissue, WAT): 0.027 ± 0.014 %ID/g
- tissue uptake at 1 h ([1]; Blood): 0.099 ± 0.04 %ID/g
- tissue uptake at 1 h ([1]; Bone (femoral)): 0.02 ± 0.0089 %ID/g
- tissue uptake at 1 h ([1]; Bone marrow): 0.039 ± 0.012 %ID/g
- tissue uptake at 1 h ([1]; Brain): 0.0062 ± 0.0049 %ID/g
- tissue uptake at 1 h ([1]; Control area): 0.051 ± 0.0063 %ID/g
- tissue uptake at 1 h ([1]; Heart): 0.03 ± 0.011 %ID/g
- tissue uptake at 1 h ([1]; Inflamed area): 0.12 ± 0.032 %ID/g
- tissue uptake at 1 h ([1]; Kidneys): 2.8 ± 1.8 %ID/g
- tissue uptake at 1 h ([1]; Liver): 0.32 ± 0.16 %ID/g
- tissue uptake at 1 h ([1]; Lungs): 0.079 ± 0.035 %ID/g
- tissue uptake at 1 h ([1]; Muscle): 0.019 ± 0.0091 %ID/g
- tissue uptake at 1 h ([1]; Pancreas): 0.024 ± 0.0024 %ID/g
- tissue uptake at 1 h ([1]; Plasma): 0.13 ± 0.015 %ID/g
- tissue uptake at 1 h ([1]; Small intestine): 0.06 ± 0.016 %ID/g
- tissue uptake at 1 h ([1]; Spleen): 0.19 ± 0.11 %ID/g
- tissue uptake at 1 h ([1]; male, Testis): 0.035 ± 0.031 %ID/g
- time of peak uptake in the inflamed area after the i.v. bolus injection [2]: about 10 min
- Human dose equivalent estimate, Adrenals [3]: 0.014 ± 0.0012 mSv/MBq
- Human dose equivalent estimate, Brain [3]: 0.012 ± 0.00077 mSv/MBq
- Human dose equivalent estimate, Breasts [3]: 0.011 ± 0.00064 mSv/MBq
- Human dose equivalent estimate, Gallbladder wall [3]: 0.014 ± 0.00065 mSv/MBq
- Human dose equivalent estimate, Heart wall [3]: 0.0083 ± 0.0010 mSv/MBq
- Human dose equivalent estimate, Kidneys [3]: 0.15 ± 0.12 mSv/MBq
- Human dose equivalent estimate, Liver [3]: 0.012 ± 0.0024 mSv/MBq
- Human dose equivalent estimate, Lower large intestine wall [3]: 0.015 ± 0.00077 mSv/MBq
- Human dose equivalent estimate, Lungs [3]: 0.0044 ± 0.00054 mSv/MBq
- Human dose equivalent estimate, Muscle [3]: 0.0050 ± 0.00018 mSv/MBq
- Human dose equivalent estimate, Osteogenic cells [3]: 0.017 ± 0.00094 mSv/MBq
- Human dose equivalent estimate, Ovaries [3]: 0.015 ± 0.00064 mSv/MBq
- Human dose equivalent estimate, Pancreas [3]: 0.014 ± 0.00085 mSv/MBq
- Human dose equivalent estimate, Red marrow [3]: 0.010 ± 0.00037 mSv/MBq
- Human dose equivalent estimate, Skin [3]: 0.010 ± 0.00054 mSv/MBq
- Human dose equivalent estimate, Small intestine [3]: 0.014 ± 0.00047 mSv/MBq
- Human dose equivalent estimate, Spleen [3]: 0.014 ± 0.0011 mSv/MBq
- Human dose equivalent estimate, Stomach wall [3]: 0.013 ± 0.00065 mSv/MBq
- Human dose equivalent estimate, Testes [3]: 0.013 ± 0.00062 mSv/MBq
- Human dose equivalent estimate, Thymus [3]: 0.011 ± 0.00068 mSv/MBq
- Human dose equivalent estimate, Thyroid [3]: 0.011 ± 0.00072 mSv/MBq
- Human dose equivalent estimate, Total body [3]: 0.013 ± 0.00041 mSv/MBq
- Human dose equivalent estimate, Upper large intestine wall [3]: 0.014 ± 0.00046 mSv/MBq
- Human dose equivalent estimate, Urinary bladder wall [3]: 0.20 ± 0.087 mSv/MBq
- Human dose equivalent estimate, Uterus [3]: 0.018 ± 0.0017 mSv/MBq
- Human effective dose estimate [3]: 0.024 ± 0.0041 mSv/MBq
- Normalized number of disintegrations, Heart wall [3]: 0.0029 ± 0.00072 h
- Normalized number of disintegrations, Kidneys [3]: 0.093 ± 0.081 h
- Normalized number of disintegrations, Liver [3]: 0.033 ± 0.0097 h
- Normalized number of disintegrations, Lungs [3]: 0.0026 ± 0.0011 h
- Normalized number of disintegrations, Muscle [3]: 0.054 ± 0.0088 h
- Normalized number of disintegrations, Total body [3]: 1.3 ± 0.085 h
- Normalized number of disintegrations, Urinary bladder wall [3]: 0.17 ± 0.076 h
Structure (SMILES): CC(C)C[C@@H]1NC(=O)CNC(=O)[C@H](CCCNC(=N)N)NC(=O)[C@H](Cc2c[nH]c3ccccc23)NC(=O)[C@H](CO)NC(=O)[C@H](CC(C)C)NC(=O)[C@H](CO)NC(=O)[C@H](CC(C)C)NC(=O)[C@H](CCCNC(=N)N)NC(=O)[C@H](C)NC(=O)[C@@H](NC(=O)COCCOCCNC(=O)CN2CCN(CC(=O)O)CCN(CC(=O)O)CCN(CC(=O)O)CC2)CSSC[C@@H](C(=O)N2CCC[C@H]2C(=O)N[C@@H](CO)C(=O)N[C@@H](CCCCN)C(=O)O)NC(=O)[C@H](CC(C)C)NC(=O)[C@H]([C@@H](C)O)NC1=O [^68Ga-DOTA-Siglec-9, metal not drawn] ({DOTA-AEEA}-CARLSLSWRGLTLCPSK-OH; disulfide 1-14)
- aortic uptake, previously reported [4]: 0.83 ± 0.33 % ID/g
